We go through eight compounds from patent publication US20260199301A1, “PHENYL-PYRAZOLO[3,4-B]PYRIDINE-4-CARBOXYLIC ACID DERIVATES FOR USE AS 5-ALPHA REDUCTASE ANTAGONISTS IN METHODS OF TREATMENT” (UNIVERSITY OF CAPE TOWN, priority 2022, published 2026).

≈ marks a conversion by molar mass, not a printed value. Read-outs that look alike come from different tables or passages of the source.

One data set deals with DU-145 cell line. Kind of data set: MTT assay IC50 in DU-145 cell line. The data set is classed as cell-based, human. Particulars: called antagonist activity against SRD5A2. The procedure: (§1) The DU-145 cell lines and HEK293 cell lines were grown to 70% confluence in DMEM supplemented with 10% (v/v) fetal bovine serum and 1% antibiotic (100 μg/mL of streptomycin and 100 unit/mL of penicillin (P/S) at 37° C. in a 5% CO2 environment.
(§2) The half maximal inhibitory concentration (IC50) was established in the selected cell lines. The cell lines previously identified as having high endogenous expression levels of SRD5A2 were used to determine the in-vitro cytotoxic effects of Bsy1 on DU-145 and HEK293. The results were compared with the comparative compounds finasteride and dutasteride. The cytotoxic concentration and cell viability of these drugs were evaluated using the 3-(4,5-dimethylthiazol-2-yl)-2,5-diphenyl-2H-tetrazolium bromide (“MTT”) assay, using the comparative compounds as positive controls.
(§3) The study seeded cells at 1×10^4 cells/well density using a 96-well plate and incubated them for 24 hours to allow the cells to attach in a 5% CO2 incubator at 37° C. Different serial concentrations of the compounds treated the cells, 1% (v/v) DMSO/methanol in DMEM treated the control cells, and DMEM only served as a blank. Cells were stained with 100 μl of a 0.5 mg/ml MTT solution and incubated in a 5% CO2 atmosphere at 37° C. incubators for 4 hours. The medium was aspirated, and 100 μl of absolute ethanol was added to each well. The formation of […] measured all growth and chemosensitivity. Absorbance was detected spectrophotometrically at 570 nm using a reference wavelength of 630 nm. The experiments were performed in triplicate.
(§4) The dose-response from the non-linear curve (inhibitor vs normalised response—variable slope curve), plotted using GraphPad Prism V 9.3.1, was used to determine the IC50 values of these cells.
The study determined the ICs values using a non-linear curve fit with a hyperbola model (FIG. 3).
For orientation: Formazan colour is commonly taken as a measure of viable cells.

Another data set concerns HEK293 cell line. Kind of data set: MTT assay IC50 in HEK293 cell line. The data set is classed as cell-based, human. The procedure: as §1, §2, §3, §4
However, the IC50 values for Bsy1 in the HEK293 cell lines were higher than in the DU-145 cells.

Data set [1] has as its system SRD5A2 gene. Kind of data set: qPCR relative expression of SRD5A2 gene in HEK293 cell line. The data set is classed as cell-based, human. Particulars: for relative expression of the SRD5A2 gene increased: HEK293, 24 hours at IC50 (finasteride 1.34 nM, dutasteride 1.29 μM, Bsy1 0.02 nM). The procedure: as §1
Experiments were repeated three times.]
The two-way ANOVA compared the expression levels of the SRD5A genes and between the different drugs in HEK293 cell lines (FIG. 6 B). […] Data were expressed for each bar as means±standard error of mean ****P≤0.0001 from control.
Background: Quantitative PCR measures a nucleic acid by following its amplification.

Data set [2] concerns HEK293 and DU-145 cell lines. Briefly: Selectivity index from ratio of IC50 values, normal cells vs cancer cells. It is filed as cell-based, human. As to conditions: normal cells (HEK293) vs cancer cells (DU-145). The procedure: The selectivity index, indicating the selectivity of a given compound between normal cells and cancer cells, was calculated from the ratio of their respective IC50 values (Equation 1).

The subject of data set [3] is SRD5A2 gene. Kind of data set: qPCR relative expression of SRD5A2 gene in DU-145 cell line. It is filed as cell-based, human. Particulars: DU-145, 24 hours at IC50 (finasteride 0.9 nM, dutasteride 1.6 μM, Bsy1 0.0054 nM). The procedure:
as §1
(§5) The androgen-independent DU-145 cell line, treated with finasteride (0.9 nM), dutasteride (1.6 μM), and Bsy1 (0.0054 nM) for 24 hours, was measured for their SRD5A gene regulation using qPCR. […] The relative expression of the SRD5A2 gene was reduced by approximately 3-fold for finasteride and dutasteride and 2-fold for Bsy1 (FIG. 5A). However, it should be noted that the finasteride concentrations were 100-fold, and dutasteride 1000-fold, higher than the concentration of Bsy1. […] The level of inhibitory action against SRD5A1 and SRD5A2 is surprising as it is expected that that the phenyl-pyrazolo[3,4-b]pyridine-4-carboxylic acid Bsy1 and its derivates, as described herein, will show similar inhibition results. […] Experiments were repeated three times.]
(§6) A two-way ANOVA statistical analysis was conducted to compare the gene suppression levels of each drug treatment against the control (untreated), using Dunnett's correction test (DCT) (FIG. 5B). [FIG. 5B—two-way ANOVA Dunnett test of the Control vs Treatment at IC50 values. Comparison tests of control vs. drug treatment at p<0.05 for: SRD5A1 (ns); SRD5A2**; SRD5A3 (ns). […]

The nature of data set [4]: Solubility, miniaturised shake-flask method. The data set is classed as physicochemical. Particulars: aqueous buffer, thermodynamic from solid, pH 7.4 as headed, phosphate buffer, 25° C. The procedure: […] Briefly, 4 μl of a 10 mM stock in DMSO was added to a 96-well plate and evaporated using a GeneVac system. […] At the end of this incubation, the samples were centrifuged at 3500 g for 15 min then transferred to an analysis plate. A calibration curve in DMSO for each sample between 10-220 μM was prepared and included in the analysis plate. Analysis was then performed by LC-MS (Agilent Rapid Resolution HPLC, AB SCIEX 4500 MS) and solubility of each sample determined from the corresponding calibration curve.

A short description of data set [5]: in vitro. As to conditions: human, hepatocytes.
Method: (§7) Hepatocyte stability was performed using a 5-point assay design using cryopreserved hepatocytes in suspension. Briefly, the compounds (1 μM) were incubated at 37° C. in human (Hepatosure 100-donor pool, XenoTech LLC) and mouse (Cryostax mouse CD1, XenoTech LLC) hepatocytes (500,000 cells/ml) for various timepoints over 120 min. Reactions were quenched by adding ice-cold acetonitrile containing internal standard. The samples were then centrifuged, and the samples analysed by LC-MS/MS (Agilent Rapid Resolution HPLC, AB SCIEX 4500 MS) for the disappearance of parent compound. Half-life, clearance and hepatic excretion ratios were determined using standard equations.
(§8) The CLint,app value can be used to calculate a predicted in vivo value by factoring in scaling factors (number of hepatocytes per gram of liver and grams of liver per kg body weight) and binding (measured plasma protein binding and estimated incubational binding). The predicted mouse and human clearance values represent the total hepatic clearances that would be expected for these compounds in vivo.
The conditions of data set [6]: 1 μM.
Method: as §7, §8
Another data set deals with SRD5A1 gene. Kind of data set: qPCR relative expression of SRD5A1 gene in DU-145 cell line. As to conditions: DU-145, 24 hours at IC50 values. It is filed as cell-based, human. The procedure: as §1, §5, §6
The conditions of data set [7]: CD1, mouse, 1 μM.
Method: as §7, §8
A further data set concerns the target T1, SRD5A2 (Homo sapiens, UniProt P31213).
T1 sequence (P31213 1-254): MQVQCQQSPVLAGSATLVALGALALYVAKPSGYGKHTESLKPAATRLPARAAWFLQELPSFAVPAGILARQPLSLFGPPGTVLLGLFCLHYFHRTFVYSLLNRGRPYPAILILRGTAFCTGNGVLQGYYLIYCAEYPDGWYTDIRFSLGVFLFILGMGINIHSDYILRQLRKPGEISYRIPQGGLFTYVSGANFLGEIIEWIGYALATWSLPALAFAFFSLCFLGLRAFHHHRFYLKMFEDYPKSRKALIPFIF
Particulars: cited from earlier work.

The nature of data set [8]: in vitro. Particulars: CD1, mouse, hepatocytes.
Method: as §7, §8
The nature of data set [9]: Plasma protein binding by ultracentrifugation. The data set is classed as in vitro ADME. Particulars: mouse, read-out: Mouse PPB (converted).
Data set [10] can be described thus: Human hepatocyte stability.
Method: as §7, §8
Data set [11] can be described thus: Mouse hepatocyte stability.
Method: as §7, §8
The mark [12] stands for this setting: Homo sapiens, DU-145, DU-145 cell line.
[13] abbreviates: Homo sapiens, HEK293, HEK293 cell line, called antagonist activity against SRD5A2, read-out: IC50.

As for `C[C@]12C=CC(=O)N[C@@H]1CC[C@@H]1[C@@H]2CC[C@]2(C)[C@@H](C(=O)Nc3cc(C(F)(F)F)ccc3C(F)(F)F)CC[C@@H]12` [Dutasteride], the IC50 in the data set with DU-145 cell line (DU-145 cell line) is 1670 ± 1850 nM; in the data set on DU-145 cell line (setting [12]), 1600 nM; in the data set with HEK293 cell line (HEK293 cell line, called antagonist activity against SRD5A2), 1210 ± 1370 nM; with HEK293 cell line (Homo sapiens, HEK293, HEK293 cell line, called antagonist activity against SRD5A2), 1290 nM. For the same compound, the “relative expression of the SRD5A2 gene increased” value with SRD5A2 gene [1] is given as “approximately 2 fold”. Besides, the “SELECTIVITY INDEX” value in [2] is on record as 0.81. The “relative expression of the SRD5A2 gene reduced” value in the data set with SRD5A2 gene [3] is reported as “approximately 3 fold”.
As to `O=C1C=C(C(=O)O)C2C(C3CC3)=NN(c3cccc(F)c3)C2N1` (centres unmarked) [Bsy5, 3-cyclopropyl-1-(3-fluorophenyl)-6-oxo-3a,6,7,7a-tetrahydro-1H-pyrazolo[3,4-b]pyridine-4-carboxylic acid], the solubility at 24 h in data set [4] was more than 200 µM.
Still for that read-out and setting: with `COc1ccc(N2N=C(C3CC3)C3C(C(=O)O)=CC(=O)NC32)cc1` (centres unmarked) [Bsy6, 3-cyclopropyl-1-(4-methoxyphenyl)-6-oxo-3a,6,7,7a-tetrahydro-1H-pyrazolo[3,4-b]pyridine-4-carboxylic acid] the figure was 120 µM (≈ 39.3 µg/mL); with `O=C1C=C(C(=O)O)C2C(C3CC3)=NN(c3ccc(Cl)cc3)C2N1` (centres unmarked) [Bsy3, 1-(4-chlorophenyl)-3-cyclopropyl-6-oxo-3a,6,7,7a-tetrahydro-1H-pyrazolo[3,4-b]pyridine-4-carboxylic acid], 190 µM (≈ 63 µg/mL).
`CC(C)(C)NC(=O)[C@H]1CC[C@H]2[C@@H]3CC[C@H]4NC(=O)C=C[C@]4(C)[C@H]3CC[C@]12C` [Finasteride]: the hepatocyte CLint at 1 μM in the data set “in vitro [5]” came to 4.5 µL/min/1e6 cells; in “in vitro [8]”, 13.8 µL/min/1e6 cells. The “Predicted human Clearance” value in data set [6] is 3.3 mL/min/kg. Further, the IC50 was found to be 0.72 ± 1.09 nM in the data set on DU-145 cell line (DU-145 cell line); 0.9 nM in the data set with DU-145 cell line (setting [12]); 1.24 ± 1.43 nM in the data set with HEK293 cell line (HEK293 cell line, called antagonist activity against SRD5A2, read-out: IC50); 1.34 nM in the data set with HEK293 cell line (setting [13]). Also, in the data set with SRD5A1 gene, the SRD5A1 suppression result is given as “comparable”. For the same compound, in [7], the “Predicted mouse Clearance” value was 10.6 mL/min/kg. Moreover, at SRD5A2, the “selectivity for SRD5A2 than SRD5A1” value is listed as 100 fold. The solubility at 24 h in data set [4] was more than 200 µM. For the same compound, the fraction unbound at 4 h, 10 μM in [9] is 0.27. The “relative expression of the SRD5A2 gene increased” value in the data set with SRD5A2 gene [1] is reported as approximately 0.75 fold. Besides, in the data set with SRD5A2 gene [1] (HEK293, IC50 values), the “SRD5A2 expression, drug treatment vs untreated, two-way ANOVA Dunnett test” value is given as “ns”. Further, the “SELECTIVITY INDEX” value in data set [2] was 1.49. Further, the “relative expression of the SRD5A2 gene reduced” value in the data set on SRD5A2 gene [3] is recorded as “approximately 3 fold”.
`O=C1C=C(C(=O)O)C2C(C3CC3)=NN(c3ccccc3F)C2N1` (centres unmarked) [Bsy4, 3-cyclopropyl-1-(2-fluorophenyl)-6-oxo-3a,6,7,7a-tetrahydro-1H-pyrazolo[3,4-b]pyridine-4-carboxylic acid]: the solubility at 24 h in [4] is more than 200 µM.
Consider `O=C1C=C(C(=O)O)C2C(C3CC3)=NN(c3ccc(Br)cc3)C2N1` (centres unmarked) [Bsy2, 1-(4-bromophenyl)-3-cyclopropyl-6-oxo-3a,6,7,7a-tetrahydro-1H-pyrazolo[3,4-b]pyridine-4-carboxylic acid], for which the solubility at 24 h in data set [4] is 195 µM (≈ 73.4 µg/mL).
As to `O=C1C=C(C(=O)O)C2C(C3CC3)=NN(c3ccc(F)cc3)C2N1` (centres unmarked) [Bsy1, 3-cyclopropyl-1-(4-fluorophenyl)-6-oxo-3a,6,7,7a-tetrahydro-1H-pyrazolo[3,4-b]pyridine-4-carboxylic acid], the values for the IC50 in the data set with DU-145 cell line (DU-145 cell line) and with HEK293 cell line (setting [13]) were 5400 nM and 0.02 nM, respectively. Also, the SRD5A1 suppression entry in the data set with SRD5A1 gene was “comparable”. The hepatocyte CLint at 1 μM was 4.1 µL/min/1e6 cells in data set [10] (human, cryopreserved hepatocytes in suspension) and less than 6.4 µL/min/1e6 cells in data set [11] (CD1, mouse, cryopreserved hepatocytes in suspension). Besides, the hepatic clearance classification result in [10] (human, predicted clearance below 30% of liver blood flow 20.7 ml/min/kg) is on record as “low hepatic clearance”; in data set [11] (mouse, predicted clearance below 30% of liver blood flow 126 ml/min/kg), “low hepatic clearance”. Moreover, the “Predicted human Clearance” value in [10] (scaled from human hepatocyte CLint,app) is 6.7 mL/min/kg. In [4], this compound displayed a solubility at 24 h of more than 200 µM. Besides, the fraction unbound at 4 h, 10 μM in [9] is 0.95. For the same compound, the “Predicted mouse Clearance” value in data set [11] (scaled from mouse hepatocyte CLint,app) is less than 13.8 mL/min/kg. Besides, the “relative expression of the SRD5A2 gene increased” value in the data set with SRD5A2 gene [1] is on record as “approximately 2 fold”. The “SELECTIVITY INDEX” value in data set [2] was 3.7.

As usually defined, the IC50 is the concentration that gives 50% inhibition. The solubility is the dissolved amount per volume that the medium holds. For orientation: hepatocyte CLint means a measure of how fast metabolising enzymes remove a compound, apart from limits set by blood flow. High values mean rapid turnover, low ones slow turnover.
